Assay results reported in PubChem BioAssay AID1963434 (Molecular Pharmacology Branch, DTP, NCI, 2024).

System: 755483-174-R-J1-PDC complex spheroid growth, percent test/control
Test: Anticancer human tumor 755483-174-R-J1-PDC patient-derived rhabdomyosarcoma cell line growth inhibition [Asc]
Conditions: for IC50: curve of first compound; for viability, T/C: stronger effect = lower value
How it was run: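 Concentration series start at each agent's clinical Cmax, or at 10 microM when none is established, and drop in half-log steps; agents are applied alone or together to complex spheroids built with HUVEC and hMSC.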
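Note: spheroids exposed to compounds for seven days before readout.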

CCN1CCN(Cc2ccc(Nc3ncc(F)c(-c4cc(F)c5nc(C)n(C(C)C)c5c4)n3)nc2)CC1 + CCN1C(C(=O)NC23CCC(C(=O)O)(CC2)CC3)C(c2cccc(Cl)c2F)C2(C(=O)Nc3cc(Cl)ccc32)C12CCCCC2
IC50 (second compound 0.03 µM): > 1000 nM | IC50 (second compound 0.0949 µM): > 1000 nM | IC50 (second compound 0.3 µM): > 1000 nM | IC50 (second compound 0.949 µM): > 1000 nM | IC50 (second compound 3 µM): > 1000 nM | viability, T/C (second compound 0.03 µM, first compound 0.00316 µM): 103% | viability, T/C (second compound 0.03 µM, first compound 0.01 µM): 97.3% | viability, T/C (second compound 0.03 µM, first compound 0.0316 µM): 112% | viability, T/C (second compound 0.03 µM, first compound 0.1 µM): 127% | viability, T/C (second compound 0.03 µM, first compound 0.316 µM): 108% | viability, T/C (second compound 0.03 µM, first compound 1 µM): 133% | viability, T/C (second compound 0.0949 µM, first compound 0.00316 µM): 89.3% | viability, T/C (second compound 0.0949 µM, first compound 0.01 µM): 116% | viability, T/C (second compound 0.0949 µM, first compound 0.0316 µM): 115% | viability, T/C (second compound 0.0949 µM, first compound 0.1 µM): 109% | viability, T/C (second compound 0.0949 µM, first compound 0.316 µM): 138% | viability, T/C (second compound 0.0949 µM, first compound 1 µM): 116% | viability, T/C (second compound 0.3 µM, first compound 0.00316 µM): 87% | viability, T/C (second compound 0.3 µM, first compound 0.01 µM): 103% | viability, T/C (second compound 0.3 µM, first compound 0.0316 µM): 124% | viability, T/C (second compound 0.3 µM, first compound 0.1 µM): 113% | viability, T/C (second compound 0.3 µM, first compound 0.316 µM): 124% | viability, T/C (second compound 0.3 µM, first compound 1 µM): 127% | viability, T/C (second compound 0.949 µM, first compound 0.00316 µM): 98.7% | viability, T/C (second compound 0.949 µM, first compound 0.01 µM): 114% | viability, T/C (second compound 0.949 µM, first compound 0.0316 µM): 122% | viability, T/C (second compound 0.949 µM, first compound 0.1 µM): 86.8% | viability, T/C (second compound 0.949 µM, first compound 0.316 µM): 129% | viability, T/C (second compound 0.949 µM, first compound 1 µM): 137% | viability, T/C (second compound 3 µM, first compound 0.00316 µM): 107% | viability, T/C (second compound 3 µM, first compound 0.01 µM): 109% | viability, T/C (second compound 3 µM, first compound 0.0316 µM): 98.6% | viability, T/C (second compound 3 µM, first compound 0.1 µM): 121% | viability, T/C (second compound 3 µM, first compound 0.316 µM): 126% | viability, T/C (second compound 3 µM, first compound 1 µM): 113%

COc1c(OCCCN2CCOCC2)ccc2c3n(c(=NC(=O)c4cnc(N)nc4)nc12)CCN3 + CNC(C)C(=O)NC1CN(S(=O)(=O)c2cccc(S(=O)(=O)N3CCC4CCC(C(=O)NC(c5ccccc5)c5ccccc5)N4C(=O)C(NC(=O)C(C)NC)C3)c2)CCC2CCC(C(=O)NC(c3ccccc3)c3ccccc3)N2C1=O
IC50 (second compound 0.01 µM): 21.4 nM | IC50 (second compound 0.0316 µM): < 3.16 nM | IC50 (second compound 0.1 µM): < 3.16 nM | IC50 (second compound 0.316 µM): < 3.16 nM | IC50 (second compound 1 µM): < 3.16 nM | viability, T/C (second compound 0.01 µM, first compound 0.00316 µM): 59.1% | viability, T/C (second compound 0.01 µM, first compound 0.01 µM): 59.4% | viability, T/C (second compound 0.01 µM, first compound 0.0316 µM): 45.7% | viability, T/C (second compound 0.01 µM, first compound 0.1 µM): 20.4% | viability, T/C (second compound 0.01 µM, first compound 0.316 µM): 8.95% | viability, T/C (second compound 0.01 µM, first compound 1 µM): 3.6% | viability, T/C (second compound 0.0316 µM, first compound 0.00316 µM): 41.9% | viability, T/C (second compound 0.0316 µM, first compound 0.01 µM): 56.3% | viability, T/C (second compound 0.0316 µM, first compound 0.0316 µM): 40.2% | viability, T/C (second compound 0.0316 µM, first compound 0.1 µM): 19% | viability, T/C (second compound 0.0316 µM, first compound 0.316 µM): 5.22% | viability, T/C (second compound 0.0316 µM, first compound 1 µM): 3.87% | viability, T/C (second compound 0.1 µM, first compound 0.00316 µM): 36% | viability, T/C (second compound 0.1 µM, first compound 0.01 µM): 43.2% | viability, T/C (second compound 0.1 µM, first compound 0.0316 µM): 35.6% | viability, T/C (second compound 0.1 µM, first compound 0.1 µM): 11.6% | viability, T/C (second compound 0.1 µM, first compound 0.316 µM): 6.95% | viability, T/C (second compound 0.1 µM, first compound 1 µM): 3.25% | viability, T/C (second compound 0.316 µM, first compound 0.00316 µM): 32% | viability, T/C (second compound 0.316 µM, first compound 0.01 µM): 29.7% | viability, T/C (second compound 0.316 µM, first compound 0.0316 µM): 51% | viability, T/C (second compound 0.316 µM, first compound 0.1 µM): 13.7% | viability, T/C (second compound 0.316 µM, first compound 0.316 µM): 6.6% | viability, T/C (second compound 0.316 µM, first compound 1 µM): 1.75% | viability, T/C (second compound 1 µM, first compound 0.00316 µM): 35.4% | viability, T/C (second compound 1 µM, first compound 0.01 µM): 16.7% | viability, T/C (second compound 1 µM, first compound 0.0316 µM): 24.5% | viability, T/C (second compound 1 µM, first compound 0.1 µM): 27.5% | viability, T/C (second compound 1 µM, first compound 0.316 µM): 22.7% | viability, T/C (second compound 1 µM, first compound 1 µM): 1.36%
